Earlier results as cited in US7655259B2, “Delayed release carnitine” (SIGMA-TAU Industrie Farmaceutiche Riunite S.p.A, priority 1993, dated 2010).

Columns and labels:
[1] = given orally, carnitine deficient patients
[2] = in the human

Row | conversion to L-carnitine [1] | Structure (SMILES) | half-life [2]
1 | readily converted to L-carnitine | C[N+](C)(C)CCCC(=O)[O-] [GBB, Gamma-butyrobetaine] | –
2 | – | C[N+](C)(C)CC(O)CC(=O)[O-] [L-carnitine, 3-hydroxy-4-(trimethylamino-)butyrate] | approximately 30 minutes
